Measured values: PMC7775894 (Bioorganic chemistry, 2020)
≈ marks a conversion by molar mass, not a printed value. Where “and” joins values, the source holds several entries; their conditions need not be identical. Identical values can stand only once. Like-named read-outs stand apart in the source and are kept apart here.

What was measured:
M. tb H37Rv strain [1] = test: Microplate alamarBlue assay; format: cell-based, Mycobacterium tuberculosis
[2] = system: Mycobacterium avium (M. avium); test: MABA MIC against M. avium; format: cell-based; conditions: for MIC: Mycobacterium avium, read-out: M. avium MIC
M. tb V4207/DS = test: microbe, parasite or virus in culture; format: cell-based; conditions: Mycobacterium tuberculosis, read-out: M. tb MIC V4207/DS
Vero cells = test: Cytotoxicity on Vero cells; format: cell-based; conditions: SI = IC50(Vero)/MIC(H37Rv)
physchem = conditions: water, kinetic from dmso stock
[3] = system: Mycobacterium abscessus (M. abs); test: MABA MIC against M. abs; format: cell-based; conditions: for MIC: Mycobacteroides abscessus, read-out: M. abs MIC
XDR M. tb strains = test: microbe, parasite or virus in culture; format: cell-based; conditions: Mycobacterium tuberculosis, read-out: MIC against XDR M. tb strains
DS- and DR-TB [4] = test: MIC against both DS- and DR-TB as stated in text; conditions: Mycobacterium tuberculosis, read-out: MIC against both DS- and DR-TB
[5] = cited from earlier work
DS- and DR-TB [6] = conditions: cited from earlier work
M. tb H37Rv strain [7] = conditions: cited from earlier work
[8] = cited from earlier work; remark: listed apart in the source
[9] = Mycobacterium tuberculosis, H37RV
[10] = M. tb H37Rv, MABA, at least 90% growth inhibition, average of three measurements

SMILES: O=C(NC12CC3CC(CC(O)(C3)C1)C2)c1cc2ccccc2[nH]1 [8a, N-(3-hydroxyadamantan-1-yl)-1H-indole-2-carboxamide]
- MIC (M. tb H37Rv strain [1]; [9]): 51.5 µM (≈ 16 µg/mL)

SMILES: COc1cccc2[nH]c(C(=O)NC34CC5CC(CC(C5)C3)C4)cc12 [8b, N-(1-Adamantyl)-4-methoxy-1H-indole-2-carboxamide]
- M. avium MIC ([2]; MABA): >197 µM
- MIC [2]: > 197 µM
- MIC (M. tb V4207/DS): 0.096 µM (≈ 0.0311 µg/mL)
- Selectivity index (SI) (Vero cells): ≥2048
- solubility kinetic (physchem): 5 µg/mL (≈ 15.4 µM)
- MIC [3]: 12.3 µM (≈ 3.99 µg/mL)
- MIC (M. tb H37Rv strain [1]; [9]): 0.096 µM (≈ 0.0311 µg/mL)

SMILES: COc1cccc2[nH]c(C(=O)NC34CC5CC(CC(O)(C5)C3)C4)cc12 [8c, N-(3-hydroxyadamantan-1-yl)-4-methoxy-1H-indole-2-carboxamide]
- solubility kinetic (physchem): 30 µg/mL (≈ 88.1 µM)
- MIC (M. tb H37Rv strain [1]; [9]): 11.7 µM (≈ 3.98 µg/mL)

SMILES: COc1ccc2[nH]c(C(=O)NC34CC5CC(CC(C5)C3)C4)cc2c1 [8d, N-(1-Adamantyl)-5-methoxy-1H-indole-2-carboxamide]
- MIC [2]: > 197 µM
- MIC (M. tb V4207/DS): 0.39 to 0.77 µM (≈ 0.127 to 0.25 µg/mL)
- Selectivity index (SI) (Vero cells): ≥256
- MIC [3]: > 197 µM
- MIC (M. tb H37Rv strain [1]; [9]): 0.77 µM (≈ 0.25 µg/mL)

SMILES: COc1ccc2[nH]c(C(=O)NC34CC5CC(CC(O)(C5)C3)C4)cc2c1 [8e, N-(3-hydroxyadamantan-1-yl)-5-methoxy-1H-indole-2-carboxamide]
- MIC (M. tb H37Rv strain [1]; [9]): 47 µM (≈ 16 µg/mL)

SMILES: Cc1ccc2[nH]c(C(=O)NC34CC5CC(CC(C5)C3)C4)cc2c1 [8f, N-(1-Adamantyl)-5-methyl-1H-indole-2-carboxamide]
- MIC [2]: > 207 µM
- MIC (M. tb V4207/DS): 0.2 µM (≈ 0.0617 µg/mL)
- Selectivity index (SI) (Vero cells): ≥1024
- MIC [3]: > 207 µM
- MIC (M. tb H37Rv strain [1]; [9]): 0.2 µM (≈ 0.0617 µg/mL)

SMILES: Cc1ccc2[nH]c(C(=O)NC34CC5CC(CC(O)(C5)C3)C4)cc2c1 [8g, N-(3-hydroxyadamantan-1-yl)-5-methyl-1H-indole-2-carboxamide]
- MIC (M. tb H37Rv strain [1]; [9]): 24.7 µM (≈ 8.01 µg/mL)

SMILES: O=C(NC12CC3CC(CC(O)(C3)C1)C2)c1cc2cc(Cl)ccc2[nH]1 [8h, 5-chloro-N-(3-hydroxyadamantan-1-yl)-1H-indole-2-carboxamide]
- MIC (M. tb H37Rv strain [1]; [10]): >93 µM
- MIC (M. tb H37Rv strain [1]; [9]): > 93 µM

SMILES: O=C(NC12CC3CC(CC(O)(C3)C1)C2)c1cc2ccc(Br)cc2[nH]1 [8i, 6-bromo-N-(3-hydroxyadamantan-1-yl)-1H-indole-2-carboxamide]
- MIC [2]: > 164 µM
- MIC (M. tb V4207/DS): 5.14 µM (≈ 2 µg/mL)
- Selectivity index (SI) (Vero cells): 32
- MIC [3]: > 164 µM
- MIC (M. tb H37Rv strain [1]; [9]): 1.32 to 2.89 µM (≈ 0.514 to 1.13 µg/mL)

SMILES: O=C(NC12CC3CC(CC(O)(C3)C1)C2)c1cc2c(Cl)cc(Cl)cc2[nH]1 [8j, 4,6-dichloro-N-(3-hydroxyadamantan-1-yl)-1H-indole-2-carboxamide]
- MIC [2]: > 169 µM
- MIC (M. tb V4207/DS): 1.32 µM (≈ 0.501 µg/mL)
- Selectivity index (SI) (Vero cells): ≥128
- MIC (XDR M. tb strains): 0.66 µM (≈ 0.25 µg/mL)
- MIC [3]: > 169 µM
- MIC (M. tb H37Rv strain [1]; [10]): 1.32 µM (≈ 0.501 µg/mL)

SMILES: O=C(NC12CC3CC(CC(C3)C1)C2)c1cc2c(F)cc(F)cc2[nH]1 [8k, N-(1-Adamantyl)-4,6-difluoro-1H-indole-2-carboxamide]
- MIC [2]: > 194 µM
- MIC (M. tb V4207/DS): 0.024 µM (≈ 0.00793 µg/mL)
- MIC (DS- and DR-TB [4]): 0.012 to 0.024 µM (≈ 0.00396 to 0.00793 µg/mL)
- Selectivity index (SI) (Vero cells): ≥8205
- MIC (XDR M. tb strains): 0.012 µM (≈ 0.00396 µg/mL)
- solubility kinetic (physchem): 7 µg/mL (≈ 21.2 µM)
- MIC [3]: > 194 µM
- MIC (M. tb H37Rv strain [1]; [9]): 0.024 µM (≈ 0.00793 µg/mL)

SMILES: O=C(NC12CC3CC(CC(O)(C3)C1)C2)c1cc2c(F)cc(F)cc2[nH]1 [8l, 4,6-difluoro-N-(3-hydroxyadamantan-1-yl)-1H-indole-2-carboxamide]
- MIC [2]: > 185 µM
- MIC (M. tb V4207/DS): 2.89 µM (≈ 1 µg/mL)
- Selectivity index (SI) (Vero cells): 32
- solubility kinetic (physchem): 19 µg/mL (≈ 54.9 µM)
- MIC [3]: > 185 µM

SMILES: O=C(Nc1cc(Cl)cc(Cl)c1)NC12CC3CC(CC(C3)C1)C2 [10a, 1-(1-Adamantyl)-3-(3,5-dichlorophenyl)urea]
- MIC [2]: 47.2 µM (≈ 16 µg/mL)
- MIC (M. tb V4207/DS): 1.47 µM (≈ 0.499 µg/mL)
- Selectivity index (SI) (Vero cells): 4.0
- M. abs MIC ([3]; MABA): >189 µM
- MIC [3]: > 189 µM

SMILES: O=C(Nc1cc(Cl)cc(Cl)c1)NC12CC3CC(CC(O)(C3)C1)C2 [10b, 1-(3,5-dichlorophenyl)-3-(3-hydroxyadamantan-1-yl)urea]
- MIC (M. tb H37Rv strain [1]; [9]): > 90 µM

SMILES: O=C(Nc1nc2ccccc2[nH]1)C12CC3CC(CC(C3)C1)C2 [13a, N-(1H-benzo[d]imidazol-2-yl)adamantane-1-carboxamide]
- MIC (M. tb H37Rv strain [1]; [9]): 13.5 µM (≈ 3.99 µg/mL)

SMILES: O=C(CC12CC3CC(CC(C3)C1)C2)Nc1nc2ccccc2[nH]1 [13b, 2-(1-Adamantyl)-N-(1H-benzo[d]imidazol-2-yl)acetamide]
- MIC (M. tb H37Rv strain [1]; [10]): >103 µM
- MIC (M. tb H37Rv strain [1]; [9]): > 103 µM

SMILES: COc1nc2ccc(Br)cc2cc1[C@@H](c1ccccc1)[C@@](O)(CCN(C)C)c1cccc2ccccc12 [bedaquiline]
- logP [5]: > 7
- MIC against both DS- and DR-TB (DS- and DR-TB [6]): 0.11 µM (≈ 0.0611 µg/mL)

SMILES: CC1(C)CCC(NC(=O)c2cc3c(Cl)cc(Cl)cc3[nH]2)CC1 [compound 1]
- MIC (M. tb H37Rv strain [7]; ref 23): 0.015 [23] μM

SMILES: O=C(NC12CC3CC(CC(C3)C1)C2)c1cc2c(Cl)cc(Cl)cc2[nH]1 [compound 2, N-(1-adamantyl)-4,6-dichloroindole-2-carboxamide]
- MIC (M. tb H37Rv strain [7]; ref 45): 0.011 μM and 0.011 [45] μM
- in vivo activity ([8]; due to poor bioavailability): inactive in vivo
- in vivo activity ([8]; likely due to poor bioavailability): inactive in vivo

SMILES: O=C(Nc1ccc(F)c(F)c1F)NC1C2CC3CC(C2)CC1C3 (centres unmarked) [compound 4]
- MIC (M. tb H37Rv strain [7]; ref 26, 43): 0.03–0.3 [26, 43] μM

SMILES: O=C(Nc1nc2ccccc2[nH]1)NC12CC3CC(CC(C3)C1)C2 [compound 12, 1-(1-adamantyl)-3-(1H-benzo[d]imidazol-2-yl)urea]
- MIC (M. tb H37Rv strain [1]; [9]): 25.8 µM (≈ 8.01 µg/mL)
